The text below walks through data of publication PMC6327980 (Journal of Enzyme Inhibition and Medicinal Chemistry, 2018).

Where two headings read alike, the source gives them in different places.

Assay [1] concerns the target T1, VchCAα (Vibrio cholerae, UniProt Q9KMP6).
T1 construct: gene VC_A0274
Kind of assay: biochemical.

Assay [2] deals with T2, BpsCAγ.
T2 construct: gene BpsCAgamma
The assay is classed as biochemical, Burkholderia pseudomallei.

For assay [3], the target named is T3, VchCAβ (Vibrio cholerae, UniProt Q9KUD6).
T3 construct: gene VC_0586
Kind of assay: biochemical.

Assay [4] concerns the target T4, BpsCAβ (Burkholderia pseudomallei, UniProt Q63Y17).
T4 construct: gene BPSL0372
The class given is biochemical. The settings on record: read-out: BpsCAβ.

T3 sequence (Q9KUD6 1-222): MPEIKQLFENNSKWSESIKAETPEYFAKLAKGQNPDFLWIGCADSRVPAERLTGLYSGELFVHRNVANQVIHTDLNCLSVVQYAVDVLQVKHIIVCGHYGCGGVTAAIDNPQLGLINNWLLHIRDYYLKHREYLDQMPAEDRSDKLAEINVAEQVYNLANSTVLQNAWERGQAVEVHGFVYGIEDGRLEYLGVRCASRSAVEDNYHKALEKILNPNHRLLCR
T1 sequence (Q9KMP6 21-239 limits assumed): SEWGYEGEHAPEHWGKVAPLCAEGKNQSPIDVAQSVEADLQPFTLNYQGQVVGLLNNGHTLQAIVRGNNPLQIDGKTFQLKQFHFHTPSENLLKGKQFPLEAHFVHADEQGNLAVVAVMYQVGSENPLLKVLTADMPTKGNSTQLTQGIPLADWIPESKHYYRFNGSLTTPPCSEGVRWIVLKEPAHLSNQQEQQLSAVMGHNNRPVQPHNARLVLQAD
T4 sequence (Q63Y17 1-256): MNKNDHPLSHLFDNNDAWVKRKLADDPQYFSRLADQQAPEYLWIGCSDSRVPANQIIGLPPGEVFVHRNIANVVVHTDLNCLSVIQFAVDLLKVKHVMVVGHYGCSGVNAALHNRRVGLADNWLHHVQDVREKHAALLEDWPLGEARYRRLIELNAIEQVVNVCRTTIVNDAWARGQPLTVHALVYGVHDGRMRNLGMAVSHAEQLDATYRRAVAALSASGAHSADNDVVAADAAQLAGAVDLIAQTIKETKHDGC

Consider `NS(=O)(=O)c1ccc(-c2ncc(C[Te]c3ccccc3)[se]2)cc1` [9a], for which the Ki was determined as 940 nM in assay [1], 8.9 µM in assay [2] (read-out: VchCAγ), 7.7 µM in assay [3] and 920 nM in assay [4].
For `Cc1ccc([Te]Cc2cnc(-c3ccc(S(N)(=O)=O)cc3)[se]2)cc1` [9b] the same measures were 470 nM, 7.6 µM, 7.72 µM and 320 nM.
With `COc1ccc([Te]Cc2cnc(-c3ccc(S(N)(=O)=O)cc3)[se]2)cc1` [9c], the Ki in assay [1] stood at 770 nM; in assay [3], 9.08 µM.
For `NS(=O)(=O)c1ccc(-c2ncc(C[Se]c3ccccc3)[se]2)cc1` [10a] the same measures were 870 nM and 8.84 µM.
Consider `Cc1ccc([Se]Cc2cnc(-c3ccc(S(N)(=O)=O)cc3)[se]2)cc1` [10b], for which the results for the Ki in assay [1] and in assay [3] were 460 nM and 8.59 µM, respectively.
With `COc1ccc([Se]Cc2cnc(-c3ccc(S(N)(=O)=O)cc3)[se]2)cc1` [10c], the Ki in assay [1] is 920 nM; in assay [3], 6.79 µM.
Consider `N=C(N)SCc1cnc(-c2ccc(S(N)(=O)=O)cc2)[se]1` [compound 11, 11], for which the values for the Ki in assay [1], in assay [2] (read-out: BpsCAγ) and in assay [3] were 440 nM, 6.55 µM and 9.12 µM, respectively.
